This is an account of results in US20250320189A1, “NEW DERIVATIVES FOR TREATING TRPM3 MEDIATED DISORDERS” (Katholieke Universiteit Leuven, priority 2022, published 2025).

For orientation: IC50 means the concentration needed to halve the response being measured. Low readings indicate higher potency, high ones lower potency.

Some results are limits rather than exact numbers.

T1 sequence (J9SQF3 1-1709 isoform J9SQF3-12): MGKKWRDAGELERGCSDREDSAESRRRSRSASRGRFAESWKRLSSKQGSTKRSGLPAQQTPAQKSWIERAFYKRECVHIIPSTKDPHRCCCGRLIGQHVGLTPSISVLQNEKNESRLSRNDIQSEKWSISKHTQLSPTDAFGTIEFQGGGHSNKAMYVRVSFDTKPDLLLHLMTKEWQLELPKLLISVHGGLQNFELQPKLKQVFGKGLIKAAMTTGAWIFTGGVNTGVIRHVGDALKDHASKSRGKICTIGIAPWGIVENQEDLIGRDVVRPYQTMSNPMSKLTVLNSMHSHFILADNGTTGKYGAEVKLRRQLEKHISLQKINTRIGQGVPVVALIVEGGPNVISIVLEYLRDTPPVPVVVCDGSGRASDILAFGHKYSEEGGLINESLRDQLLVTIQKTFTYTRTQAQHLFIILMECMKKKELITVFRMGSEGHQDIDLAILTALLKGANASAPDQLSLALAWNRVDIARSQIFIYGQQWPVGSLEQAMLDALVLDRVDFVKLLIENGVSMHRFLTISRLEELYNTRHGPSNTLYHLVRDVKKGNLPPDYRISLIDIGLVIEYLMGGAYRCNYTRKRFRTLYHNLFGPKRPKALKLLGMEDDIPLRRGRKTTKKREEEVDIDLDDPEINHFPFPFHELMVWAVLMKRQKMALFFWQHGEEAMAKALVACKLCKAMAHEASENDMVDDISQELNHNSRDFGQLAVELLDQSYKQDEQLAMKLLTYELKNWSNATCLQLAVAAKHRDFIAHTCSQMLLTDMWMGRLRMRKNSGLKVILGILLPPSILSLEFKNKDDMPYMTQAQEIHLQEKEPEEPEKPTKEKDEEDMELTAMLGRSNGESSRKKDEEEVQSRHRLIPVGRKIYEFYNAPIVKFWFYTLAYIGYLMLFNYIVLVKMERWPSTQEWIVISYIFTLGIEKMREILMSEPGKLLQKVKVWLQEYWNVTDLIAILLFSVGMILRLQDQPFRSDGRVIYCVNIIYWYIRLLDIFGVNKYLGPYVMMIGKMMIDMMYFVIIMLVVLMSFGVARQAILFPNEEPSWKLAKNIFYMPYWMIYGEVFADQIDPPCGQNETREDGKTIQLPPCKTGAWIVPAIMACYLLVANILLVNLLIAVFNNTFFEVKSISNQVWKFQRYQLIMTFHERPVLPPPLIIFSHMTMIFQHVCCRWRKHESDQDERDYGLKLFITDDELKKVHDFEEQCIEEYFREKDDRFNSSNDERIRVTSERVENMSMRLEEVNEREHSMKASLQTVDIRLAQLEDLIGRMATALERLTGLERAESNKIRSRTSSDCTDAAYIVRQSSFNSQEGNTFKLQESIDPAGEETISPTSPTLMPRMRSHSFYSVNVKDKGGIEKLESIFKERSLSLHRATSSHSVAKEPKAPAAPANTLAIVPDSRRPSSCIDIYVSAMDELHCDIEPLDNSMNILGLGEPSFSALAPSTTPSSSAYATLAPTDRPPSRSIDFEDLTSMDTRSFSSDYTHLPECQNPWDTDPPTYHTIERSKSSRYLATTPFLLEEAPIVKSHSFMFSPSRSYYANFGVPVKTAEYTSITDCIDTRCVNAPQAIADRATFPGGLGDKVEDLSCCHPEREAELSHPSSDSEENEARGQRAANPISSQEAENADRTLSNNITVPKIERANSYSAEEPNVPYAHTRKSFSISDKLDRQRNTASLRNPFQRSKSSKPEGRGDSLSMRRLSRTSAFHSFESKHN

The first assay has as its system rat pain model.
Experiment: not given
The settings on record: cited from earlier work.
Take `O=C1C[C@@H](c2ccc(O)cc2)Oc2cc(O)ccc21` [Liquiritigenin]: the “mechanical and cold hyperalgesia” value is “decrease mechanical and cold hyperalgesia”.

The next assay has as its target T1, mouse TRPM3α2 (mTRPM3) ion channel (Mus musculus, UniProt J9SQF3).
T1 construct: expressed in transfected cells; host or cells: flip-in (Flp-In) HEK293
The experiment in a line: Monitoring the TRPM3 ion channel driven Ca2+ uptake (Fluo-4 AM assay). It is filed as cell-based. The settings on record: mTRPM3alpha2 overexpressing flip-in HEK293 cells, stimulated with Pregnenolone sulfate (PS) 50 μM. In outline: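 Flp-In HEK293 cells overexpressing mTRPM3α2 were loaded with Fluo-4 AM and added to plates holding compound plus 50 μM pregnenolone sulfate in Ca²⁺-containing Krebs buffer. Fluorescence (ex 485/em 535) was read right after cell addition. Inhibition was calculated against vehicle-stimulated and positive-control-inhibitor wells, with IC50 derived from it.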
With `Cc1oc2ccc(OCC3CC3)cc2c1C(=O)NC1CCOCC1` [Cpd 022, 5-(cyclopropylmethoxy)-2-methyl-N-(oxan-4-yl)-1-benzofuran-3-carboxamide], the 50% inhibitory concentration (IC50) was 1000 to 20000 nM. Same read-out and setting: the value for `Cc1oc2ccc(OCC3CC3)cc2c1C(=O)NC(C)(CO)CO` [Cpd 023, 5-(cyclopropylmethoxy)-N-(1,3-dihydroxy-2-methylpropan-2-yl)-2-methyl-1-benzofuran-3-carboxamide] was < 1000 nM; that for `Cc1oc2ccc(OCC3CC3)cc2c1C(=O)NC1(CO)CCC1` [Cpd 025, 5-(cyclopropylmethoxy)-N-[1-(hydroxymethyl)cyclobutyl]-2-methyl-1-benzofuran-3-carboxamide] was < 1000 nM.

The molecule `Cc1oc2ccc(OCC3CC3)cc2c1C(=O)NC1(CO)CC1` [Cpd 026, 5-(cyclopropylmethoxy)-N-[1-(hydroxymethyl)cyclopropyl]-2-methyl-1-benzofuran-3-carboxamide] returned an IC50 of 1000 to 20000 nM. The same measure, in the same setting: the value for `Cc1oc2ccc(OCC3CC3)cc2c1C(=O)NC1(CO)COC1` [Cpd 029, 5-(cyclopropylmethoxy)-N-[3-(hydroxymethyl)oxetan-3-yl]-2-methyl-1-benzofuran-3-carboxamide] was < 1000 nM; that for `Cc1oc2ccc(OCC3CC3)cc2c1C(=O)NC1(CO)CCOCC1` [Cpd 030, 5-(cyclopropylmethoxy)-N-[4-(hydroxymethyl)oxan-4-yl]-2-methyl-1-benzofuran-3-carboxamide] was < 1000 nM; that for `Cc1oc2ccc(OCC3CC3)cc2c1C(=O)NC1(C(N)=O)COC1` [Cpd 034, N-(3-carbamoyloxetan-3-yl)-5-(cyclopropylmethoxy)-2-methyl-1-benzofuran-3-carboxamide] was < 1000 nM. On the same count and under the same terms, the value for `Cc1oc2ccc(OCC3CC3)cc2c1C(=O)NC1(C(N)=O)CCOCC1` [Cpd 037, N-(4-carbamoyloxan-4-yl)-5-(cyclopropylmethoxy)-2-methyl-1-benzofuran-3-carboxamide] was < 1000 nM; that for `Cc1oc2ccc(OCC(F)F)cc2c1C(=O)N[C@@H](CO)C(N)=O` [Cpd 038, (2S)-2-{[5-(2,2-difluoroethoxy)-2-methyl-1-benzofuran-3-yl]formamido}-3-hydroxypropanamide] was < 1000 nM; that for `Cc1oc2ccc(OCC(C)(C)C)cc2c1C(=O)N[C@@H](CO)C(N)=O` [Cpd 039, (2S)-2-{[5-(2,2-dimethylpropoxy)-2-methyl-1-benzofuran-3-yl]formamido}-3-hydroxypropanamide] was < 1000 nM. In the case of `Cc1oc2ccc(OCC(F)F)cc2c1C(=O)N[C@H](C(N)=O)[C@@H](C)O` [Cpd 040, (2S,3R)-2-{[5-(2,2-difluoroethoxy)-2-methyl-1-benzofuran-3-yl]formamido}-3-hydroxybutanamide], the IC50 is < 1000 nM.

Another assay concerns wild type mice / knock-out TRPM3 mice.
Experiment: not given
The note with it: wild type mice vs knock-out TRPM3 mice; cited from earlier work.
In the case of pregnenolone sulfate, the evoked pain entry is “evoked pain in wild type mice but not in knock-out TRPM3 mice”.

For another assay, the target named is TRPM3 (Homo sapiens, UniProt Q9HCF6).
TRPM3, sequence (Q9HCF6 whole entry, species assumed): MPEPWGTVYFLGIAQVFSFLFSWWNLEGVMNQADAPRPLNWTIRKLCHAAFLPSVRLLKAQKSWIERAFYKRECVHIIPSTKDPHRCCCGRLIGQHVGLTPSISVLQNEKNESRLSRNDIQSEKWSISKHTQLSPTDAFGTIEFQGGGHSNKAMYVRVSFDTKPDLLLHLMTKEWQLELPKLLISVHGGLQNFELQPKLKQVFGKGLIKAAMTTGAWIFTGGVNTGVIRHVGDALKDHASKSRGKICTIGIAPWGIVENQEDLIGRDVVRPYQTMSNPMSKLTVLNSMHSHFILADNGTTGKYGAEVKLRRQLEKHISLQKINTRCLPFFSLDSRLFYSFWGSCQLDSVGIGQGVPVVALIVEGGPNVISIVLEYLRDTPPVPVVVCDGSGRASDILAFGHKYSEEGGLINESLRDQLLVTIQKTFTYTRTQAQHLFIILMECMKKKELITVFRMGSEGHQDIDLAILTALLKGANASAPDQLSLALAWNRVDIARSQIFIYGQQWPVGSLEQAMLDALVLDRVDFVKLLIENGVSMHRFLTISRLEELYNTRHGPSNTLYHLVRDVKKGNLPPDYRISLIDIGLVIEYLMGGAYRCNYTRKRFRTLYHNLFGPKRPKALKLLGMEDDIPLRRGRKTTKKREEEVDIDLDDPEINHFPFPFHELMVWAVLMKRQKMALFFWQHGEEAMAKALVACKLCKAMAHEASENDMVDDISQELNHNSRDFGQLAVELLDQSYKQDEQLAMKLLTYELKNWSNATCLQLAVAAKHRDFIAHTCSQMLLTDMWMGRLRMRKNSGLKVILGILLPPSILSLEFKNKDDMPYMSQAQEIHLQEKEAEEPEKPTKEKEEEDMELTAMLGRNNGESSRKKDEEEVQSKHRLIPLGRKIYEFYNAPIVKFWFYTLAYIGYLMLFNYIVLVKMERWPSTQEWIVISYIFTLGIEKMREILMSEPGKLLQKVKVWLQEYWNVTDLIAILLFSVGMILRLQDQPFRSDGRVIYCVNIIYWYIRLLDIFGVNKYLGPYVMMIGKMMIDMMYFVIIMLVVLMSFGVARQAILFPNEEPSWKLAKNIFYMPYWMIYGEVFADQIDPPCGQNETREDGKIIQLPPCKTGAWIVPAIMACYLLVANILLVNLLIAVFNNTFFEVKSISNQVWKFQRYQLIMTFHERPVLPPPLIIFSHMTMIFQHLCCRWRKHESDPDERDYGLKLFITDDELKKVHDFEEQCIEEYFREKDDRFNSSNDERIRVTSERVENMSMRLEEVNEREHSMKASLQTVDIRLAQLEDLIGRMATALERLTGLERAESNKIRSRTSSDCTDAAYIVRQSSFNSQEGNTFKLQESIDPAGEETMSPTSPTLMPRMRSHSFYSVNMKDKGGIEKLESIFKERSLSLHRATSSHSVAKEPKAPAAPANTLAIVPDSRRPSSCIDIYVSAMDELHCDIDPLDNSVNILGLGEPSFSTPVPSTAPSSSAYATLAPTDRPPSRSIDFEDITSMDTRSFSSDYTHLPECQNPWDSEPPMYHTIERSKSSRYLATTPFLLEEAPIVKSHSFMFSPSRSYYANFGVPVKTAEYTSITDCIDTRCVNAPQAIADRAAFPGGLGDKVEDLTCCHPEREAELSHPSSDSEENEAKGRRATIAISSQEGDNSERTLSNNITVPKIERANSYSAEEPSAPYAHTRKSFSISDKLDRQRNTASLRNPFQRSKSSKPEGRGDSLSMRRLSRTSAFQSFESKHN
Experiment: not given
The settings on record: cited from earlier work.
On to pregnenolone sulfate, for which the “activator of TRPM3” value was “potent known activator”.
